The target in one assay is Histone deacetylase 2 (Homo sapiens, UniProt Q92769). Description: Inhibition of human HDAC2 preincubated for 10 mins followed by tripeptide substrate addition and measured after 60 mins by fluorescence microplate reader assay.
The target in a further assay is Histone deacetylase 1 (Homo sapiens, UniProt Q13547). The assay can be described thus: Inhibition of HDAC1 (unknown origin) preincubated for 10 mins followed by tripeptide substrate addition and measured after 60 mins by fluorescence microplate reader assay.

SMILES strings stand for the structures.

Sequence of Histone deacetylase 1 (Q13547 whole entry): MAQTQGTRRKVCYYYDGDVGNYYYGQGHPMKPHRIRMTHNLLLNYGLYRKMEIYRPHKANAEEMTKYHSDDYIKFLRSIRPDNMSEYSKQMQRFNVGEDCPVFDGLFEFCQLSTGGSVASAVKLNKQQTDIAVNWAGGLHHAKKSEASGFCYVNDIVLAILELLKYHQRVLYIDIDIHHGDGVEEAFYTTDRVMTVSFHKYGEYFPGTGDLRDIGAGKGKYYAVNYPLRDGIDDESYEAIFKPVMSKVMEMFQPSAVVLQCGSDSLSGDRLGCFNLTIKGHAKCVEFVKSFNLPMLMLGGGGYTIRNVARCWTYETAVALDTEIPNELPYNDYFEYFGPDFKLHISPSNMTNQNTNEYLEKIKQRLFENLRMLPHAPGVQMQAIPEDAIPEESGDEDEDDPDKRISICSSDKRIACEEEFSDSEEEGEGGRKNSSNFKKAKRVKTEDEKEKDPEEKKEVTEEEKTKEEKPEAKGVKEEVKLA
Sequence of Histone deacetylase 2 (Q92769 whole entry): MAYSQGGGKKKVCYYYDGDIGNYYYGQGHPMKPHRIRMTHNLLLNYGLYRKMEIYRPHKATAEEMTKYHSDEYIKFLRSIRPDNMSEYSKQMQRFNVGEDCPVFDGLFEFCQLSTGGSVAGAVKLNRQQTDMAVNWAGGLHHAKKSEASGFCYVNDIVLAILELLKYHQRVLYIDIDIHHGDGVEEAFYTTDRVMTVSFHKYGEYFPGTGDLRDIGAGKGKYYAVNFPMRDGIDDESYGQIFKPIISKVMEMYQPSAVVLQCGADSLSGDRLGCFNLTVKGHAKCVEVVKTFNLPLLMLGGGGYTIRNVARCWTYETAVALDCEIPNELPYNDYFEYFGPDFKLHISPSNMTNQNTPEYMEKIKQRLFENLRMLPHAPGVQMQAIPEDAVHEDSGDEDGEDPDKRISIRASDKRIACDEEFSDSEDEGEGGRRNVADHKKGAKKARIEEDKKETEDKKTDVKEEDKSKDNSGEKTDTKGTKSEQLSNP

`CN(C)CCN(C)c1ccc2cc(C(=O)Nc3cc(-c4cccs4)ccc3N)cnc2c1` gave a half-inhibitory concentration (IC50) against Histone deacetylase 2 of 15 nM. For the compound `CN1C(=O)Cc2cc(C(=O)Nc3cc(-c4cccs4)ccc3N)ccc21`, the IC50 against Histone deacetylase 1 came out at 5 nM; against Histone deacetylase 2 it was 10 nM. In the case of `CN(C)CCNc1ccc2cc(C(=O)Nc3cc(-c4cccs4)ccc3N)ncc2c1`, inhibition at Histone deacetylase 2 was half-maximal at 5 nM (IC50). Consider `Nc1ccc(-c2cccs2)cc1NC(=O)c1ccc2c(c1)CC(=O)N2CCCN1CCOCC1`, for which the values for the IC50 at Histone deacetylase 1 and on Histone deacetylase 2 were 1 nM and 5 nM, respectively.

For the compound `Nc1ccc(-c2cccs2)cc1NC(=O)c1ccc2c(c1)CC(=O)N2CCN1CCOCC1`, the IC50 at Histone deacetylase 1 was 1 nM; at Histone deacetylase 2, 5 nM. The corresponding values for `Nc1ccc(-c2ccccc2)cc1NC(=O)c1ccc2c(c1)ncn2CCN1CCOCC1` are 1 nM and 10 nM.

What is called IC50 is the concentration at which inhibition is half-maximal. Low readings indicate greater potency, high ones weaker potency.

The record behind these values is ChEMBL document CHEMBL4828773, “Novel HDAC1 and HDAC2 Inhibitors for Treating Diseases” (ACS Med Chem Lett, 2021).
